Data reported in US20070219214A1, “Dual NK2/NK3-antagonists, pharmaceutical compositions comprising them, and processes for their preparation” (Solvay pharmaceuticals GmbH, priority 2006, published 2007).

Columns and labels:
[1] = target: T1, human NK2-receptor (Homo sapiens, UniProt P21452); test: Binding potency of the test substances to NK2-receptors in vitro ([3H]-SR 48968 displacement); set-up: expressed in transfected cells; host or cells: CHO cells (membrane preparation); settings: human NK2-receptor in CHO cell membranes, [3H]-SR 48968 (saredutant); average of at least three measurements; read-out: pKi, binding potency to NK2-receptors (converted)
T1 sequence (P21452 1-398): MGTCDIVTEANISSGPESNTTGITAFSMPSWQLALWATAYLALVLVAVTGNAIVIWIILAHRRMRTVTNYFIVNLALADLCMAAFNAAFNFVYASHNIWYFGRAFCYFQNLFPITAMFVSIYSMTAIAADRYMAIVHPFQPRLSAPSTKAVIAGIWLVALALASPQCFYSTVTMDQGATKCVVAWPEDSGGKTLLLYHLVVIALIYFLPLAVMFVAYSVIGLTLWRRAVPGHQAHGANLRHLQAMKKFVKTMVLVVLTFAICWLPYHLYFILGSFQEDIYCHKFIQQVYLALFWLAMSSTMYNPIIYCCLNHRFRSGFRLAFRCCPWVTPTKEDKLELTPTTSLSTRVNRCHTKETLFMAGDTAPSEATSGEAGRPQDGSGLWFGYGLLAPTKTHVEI
From the text: 2. Determination of the Binding Potency of the Test Substances to NK2-Receptors in Vitro
The affinity of test compounds for NK2-receptors can be determined by measuring the ability of the test compound to displace a radiolabeled ligand from its specific binding site.
(§1) The radiolabel used in this assay is [^3H]-SR 48968 (saredutant). Receptors were obtained from membrane preparations of CHO-cells (Chinese Hamster Ovary cells), in which the human NK2-receptor was stably expressed. Membranes were incubated with [^3H]-saredutant in the absence or presence of test compounds at different concentrations, diluted in a buffer system. Separation of bound radioactivity from free radioactivity was done by filtration through glass fiber filters (Packard GF/B) with several washings with ice-cold buffer solution. Bound radioactivity was measured with a liquid scintillation counter (total binding). Unspecific binding was determined by incubation with an excess (0.1 μmol/l) of unlabeled saredutant. Specific binding is obtained by subtracting the unspecific binding from the total binding.
(§2) Radioactivity of the specific binding was plotted against the concentration of the test compound and IC50 values, i.e. the concentration of test compound by which 50% of the radioligand is displaced, were calculated. The inhibition constant (Ki) was calculated according to the Cheng-Prusoff equation, and listed as its negative logarithmic value (pKi). The pKi value describes the potency of a test compound to bind to a receptor.
(§3) The average result of all measurements is listed above.

[2] = target: T2, human NK3 receptor (Homo sapiens, UniProt P29371); test: Binding potency of the test substances to NK3-receptors in vitro ([3H]-SR 142801 displacement); set-up: expressed in transfected cells; host or cells: CHO cells (membrane preparation); settings: human NK3-receptor in CHO cell membranes, [3H]-SR 142801 (osanetant), average of at least three measurements; for Ki: read-out: pKi, binding potency to NK3-receptors (converted)
T2 sequence (P29371 1-465): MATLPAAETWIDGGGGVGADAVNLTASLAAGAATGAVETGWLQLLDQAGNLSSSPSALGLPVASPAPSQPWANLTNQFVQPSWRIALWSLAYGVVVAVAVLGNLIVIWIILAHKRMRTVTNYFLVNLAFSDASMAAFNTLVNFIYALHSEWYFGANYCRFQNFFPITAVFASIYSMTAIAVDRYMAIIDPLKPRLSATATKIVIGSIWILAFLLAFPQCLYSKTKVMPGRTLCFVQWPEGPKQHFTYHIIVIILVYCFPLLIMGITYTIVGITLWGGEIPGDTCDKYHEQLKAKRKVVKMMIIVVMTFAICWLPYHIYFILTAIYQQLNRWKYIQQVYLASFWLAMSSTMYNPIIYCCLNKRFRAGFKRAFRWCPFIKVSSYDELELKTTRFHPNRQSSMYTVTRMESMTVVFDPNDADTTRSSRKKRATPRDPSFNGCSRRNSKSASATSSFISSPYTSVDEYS
From the text: 3. Determination of the Binding Potency of the Test Substances to NK3-Receptors in Vitro
The affinity of test compounds for NK3-receptors can be determined by measuring the ability of the test compound to displace a radiolabeled ligand from its specific binding site.
as §1, with “142801 (osanetant).” for “48968 (saredutant).”, “NK3-receptor” for “NK2-receptor”, “[^3H]-osanetant” for “[^3H]-saredutant”, “(1” for “(0.1”, “osanetant.” for “saredutant.”
as §2, with “(pKi)” for “(pKi).”
as §3

SMILES | Ki [1] [nM] | Ki [2] [nM] | pKi, binding potency to NK3-receptors [2]
CSc1ncc(C(=O)N(C)CC(CCN2CCC(C(=O)N(C)C)(N3CCCCC3)CC2)c2ccc(Cl)c(Cl)c2)n1Cc1ccccc1 (centres unmarked) [compound 20] | 25.1 | – | –
CN(C)C(=O)C1(N2CCCCC2)CCN(CCC(CN(C)C(=O)c2c(-c3ccccc3)oc3ccccc3c2=O)c2ccc(Cl)c(Cl)c2)CC1 (centres unmarked) [compound 21] | 12.6 | 63.1 | –
CN(C)C(=O)C1(N2CCCCC2)CCN(CCC(CN(C)C(=O)c2ccc(OC(F)(F)F)cc2)c2ccc(Cl)c(Cl)c2)CC1 (centres unmarked) [compound 26] | 5.01 | 50.1 | –
CN(C)C(=O)C1(N2CCCCC2)CCN(CCC(CN(C)C(=O)c2ccc(-c3ccccc3)cc2)c2ccc(Cl)c(Cl)c2)CC1 (centres unmarked) [compound 27] | 15.8 | – | –
CN(C)C(=O)C1(N2CCCCC2)CCN(CCC(CN(C)C(=O)CC(c2ccccc2)c2ccccc2)c2ccc(Cl)c(Cl)c2)CC1 (centres unmarked) [compound 28] | 20 | – | –
CN(C)C(=O)C1(N2CCCCC2)CCN(CCC(CN(C)C(=O)c2ccc3ccccc3c2)c2ccc(Cl)c(Cl)c2)CC1 (centres unmarked) [compound 32] | 15.8 | 39.8 | –
CN(C)C(=O)C1(N2CCCCC2)CCN(CCC(CN(C)C(=O)Cc2ccc(-c3ccccc3)cc2)c2ccc(Cl)c(Cl)c2)CC1 (centres unmarked) [compound 33] | 79.4 | 31.6 | –
CN(C)C(=O)C1(N2CCCCC2)CCN(CCC(CN(C)C(=O)c2ccsc2)c2ccc(Cl)c(Cl)c2)CC1 (centres unmarked) [compound 38] | 1.58 | 25.1 | –
CN(C)C(=O)C1(N2CCCCC2)CCN(CCC(CN(C)C(=O)c2ccncc2)c2ccc(Cl)c(Cl)c2)CC1 (centres unmarked) [compound 44] | 5.01 | 31.6 | –
CN(C)C(=O)C1(N2CCCCC2)CCN(CCC(CN(C)C(=O)c2cc(=O)c3ccccc3o2)c2ccc(Cl)c(Cl)c2)CC1 (centres unmarked) [compound 45] | 2.51 | 12.6 | –
CN(C)C(=O)C1(N2CCCCC2)CCN(CCC(CN(C)C(=O)c2ccc(S(N)(=O)=O)cc2)c2ccc(Cl)c(Cl)c2)CC1 (centres unmarked) [compound 46] | 6.31 | 31.6 | –
CN(C)C(=O)C1(N2CCCCC2)CCN(CCC(CN(C)C(=O)Cc2ccccn2)c2ccc(Cl)c(Cl)c2)CC1 (centres unmarked) [compound 49] | 10 | 7.94 | –
CN(C)C(=O)C1(N2CCCCC2)CCN(CCC(CN(C)C(=O)Cc2cccnc2)c2ccc(Cl)c(Cl)c2)CC1 (centres unmarked) [compound 50] | 39.8 | 10 | –
CN(C)C(=O)C1(N2CCCCC2)CCN(CCC(CN(C)C(=O)c2ccccc2Br)c2ccc(Cl)c(Cl)c2)CC1 (centres unmarked) [compound 71] | 5.01 | 39.8 | –
CN(C)C(=O)C1(N2CCCCC2)CCN(CCC(CN(C)C(=O)c2ccccc2F)c2ccc(Cl)c(Cl)c2)CC1 (centres unmarked) [compound 72] | 3.16 | 39.8 | –
CCN(C)C(=O)C1(N2CCCCC2)CCN(CC[C@H](CN(C)C(=O)c2ccccc2)c2ccc(Cl)c(Cl)c2)CC1 [compound 95, 1′-[(3S)-4-[benzoyl(methyl)amino]-3-(3,4-dichlorophenyl)butyl]-N-ethyl-N-methyl-1,4′-bipiperidine-4′-carboxamide] | ≤ 10 | – | –
CN(C)C(=O)C1CCCCN1C1CCN(CC[C@H](CN(C)C(=O)c2ccccc2)c2ccc(Cl)c(Cl)c2)CC1 (stereo partly drawn) [compound 100, 1′-[(3S)-4-[benzoyl(methyl)amino]-3-(3,4-dichlorophenyl)-butyl]-N,N-dimethyl-1,4′-bipiperidine-2-carboxamide] | ≤ 10 | – | –
CN(C)C(=O)C1CCCCN1C1CCN(CC[C@H](CN(C)C(=O)c2ccccc2)c2ccc(Cl)c(Cl)c2)CC1 (some centres unmarked) [compound 100] | 3.16 | – | –

Now from value to molecule:

Ki [1] [nM] | Ki [2] [nM] | pKi, binding potency to NK3-receptors [2] | SMILES
15.8 | 50.1 | – | CN(C)C(=O)C1(N2CCCCC2)CCN(CCC(CN(C)C(=O)C2CC2)c2ccc(Cl)c(Cl)c2)CC1 (centres unmarked) [compound 22]
5.01 | 63.1 | – | CN(C)C(=O)C1(N2CCCCC2)CCN(CCC(CN(C)C(=O)c2ccccc2C(=O)O)c2ccc(Cl)c(Cl)c2)CC1 (centres unmarked) [compound 25]
2.51 | 50.1 | – | CN(C)C(=O)C1(N2CCCCC2)CCN(CCC(CN(C)C(=O)CCc2ccc(O)cc2)c2ccc(Cl)c(Cl)c2)CC1 (centres unmarked) [compound 29]
2.51 | 20 | – | CN(C)C(=O)C1(N2CCCCC2)CCN(CCC(CN(C)C(=O)c2cccn2C)c2ccc(Cl)c(Cl)c2)CC1 (centres unmarked) [compound 30]
3.98 | 39.8 | – | CN(C)C(=O)C1(N2CCCCC2)CCN(CCC(CN(C)C(=O)c2ccco2)c2ccc(Cl)c(Cl)c2)CC1 (centres unmarked) [compound 31]
3.16 | – | – | CN(C)C(=O)C1(N2CCCCC2)CCN(CCC(CN(C)C(=O)c2ccc[nH]2)c2ccc(Cl)c(Cl)c2)CC1 (centres unmarked) [compound 35]
20 | 31.6 | – | CN(C)C(=O)C1(N2CCCCC2)CCN(CCC(CN(C)C(=O)c2cc3ccccc3[nH]2)c2ccc(Cl)c(Cl)c2)CC1 (centres unmarked) [compound 39]
12.6 | 63.1 | – | CN(C)C(=O)C1(N2CCCCC2)CCN(CCC(CN(C)C(=O)Cc2c[nH]c3ccccc23)c2ccc(Cl)c(Cl)c2)CC1 (centres unmarked) [compound 40]
3.16 | 15.8 | – | CN(C)C(=O)C1(N2CCCCC2)CCN(CCC(CN(C)C(=O)c2ccc3cc[nH]c3c2)c2ccc(Cl)c(Cl)c2)CC1 (centres unmarked) [compound 41]
15.8 | – | – | CN(C)C(=O)C1(N2CCCCC2)CCN(CCC(CN(C)C(=O)c2cnccn2)c2ccc(Cl)c(Cl)c2)CC1 (centres unmarked) [compound 42]
3.16 | 20 | – | CN(C)C(=O)C1(N2CCCCC2)CCN(CCC(CN(C)C(=O)c2ccc(Cl)c(S(N)(=O)=O)c2)c2ccc(Cl)c(Cl)c2)CC1 (centres unmarked) [compound 47]
– | 6.31 | – | CN(C)C(=O)C1(N2CCCCC2)CCN(CCC(CN(C)C(=O)c2ccc(NC(=O)OC(C)(C)C)cc2)c2ccc(Cl)c(Cl)c2)CC1 (centres unmarked) [compound 54]
– | 63.1 | – | CN(C)C(=O)C1(N2CCCCC2)CCN(CCC(CN(C)C(=O)Cc2cc(O)nc(O)n2)c2ccc(Cl)c(Cl)c2)CC1 (centres unmarked) [compound 57]
– | – | 7.2 | CN(C)C(=O)C1(N2CCCCC2)CCN(CC[C@H](CN(C)C(=O)C(Cc2ccc(-c3ccccc3)cc2)NC(=O)C(C)(C)C)c2ccc(Cl)c(Cl)c2)CC1 (some centres unmarked) [compound 60]
3.98 | 20 | – | CN(C)C(=O)C1(N2CCCCC2)CCN(CCC(CN(C)C(=O)c2ccc3c(c2)OC(F)(F)O3)c2ccc(Cl)c(Cl)c2)CC1 (centres unmarked) [compound 63]
12.6 | 79.4 | – | CN(C)C(=O)C1(N2CCCCC2)CCN(CCC(CN(C)C(=O)c2cc[nH]c2)c2ccc(Cl)c(Cl)c2)CC1 (centres unmarked) [compound 64]
– | 20 | – | COc1ccc(-c2ocnc2C(=O)N(C)CC(CCN2CCC(C(=O)N(C)C)(N3CCCCC3)CC2)c2ccc(Cl)c(Cl)c2)cc1 (centres unmarked) [compound 66]
20 | – | – | CN(C)C(=O)C1(N2CCCCC2)CCN(CCC(CN(C)C(=O)c2cccc3ccccc23)c2ccc(Cl)c(Cl)c2)CC1 (centres unmarked) [compound 92]
